Literature values as cited in US20140309168A1, “MODIFIED PEPTIDES AND PROTEINS” (AmideBio, LLC, priority 2010, published 2014).

Settings: background statement on the marketed peptide

## enfuvirtide
  in vivo half life: about 3.8 hours
